Series [1] can be described thus: Permeability coefficient through artificial membrane in presence of unstirred water layer by PAMPA. (The PAMPA barrier holds no transporters, so it reflects passive diffusion.)
Series [2] in a line: Permeability coefficient through artificial membrane in presence of stirred water layer.
Series [3] is described as follows: Partition coefficient, log P of the compound. The following applies: octanol/water.
Series [4] is described as follows: Intrinsic artificial membrane permeability coefficient, log P0 of the compound. In kind it is ADME.
The subject of series [5] is Caco-2. Description: Permeability from apical to basolateral side of the Caco-2 cell membrane. Type of series: ADME, cell-based. The following applies: human. (Caco-2 cells form a polarised layer with tight junctions and transporters.)
In series [6] the test system is Caco-2. Description: Permeability from basolateral to apical side of the Caco-2 cell membrane. In kind it is ADME, cell-based. The conditions noted are these: human.
Series [7] in a line: Permeability coefficient through artificial membrane in presence of stirred water layer at 200 rpm stirring speed. In kind it is ADME.
The nature of series [8]: Permeability coefficient through artificial membrane in presence of stirred water layer at 100 rpm stirring speed. In kind it is ADME.
The nature of series [9]: Permeability coefficient through artificial membrane in presence of stirred water layer at 250 rpm stirring speed. Type of series: ADME.

The structures appear in SMILES notation. Several values for one entry are separate records, joined by “and”; a condition that tells them apart may be missing. Equal values may be shown once.

What is called Papp is a coefficient for how fast a substance crosses the barrier. As a reminder, the logP is a log measure of how a compound divides between an organic and an aqueous phase. For the molecule `C=CCc1ccccc1OCC(O)CNC(C)C` (stereo not given) [ALPRENOLOL], the LogP app in series [1] is -4.7; in [2] (artificial membrane), -4.21. The Papp in [1] was 11.5 ×10⁻⁶ cm/s; in series [2] (PAMPA), 61.4 ×10⁻⁶ cm/s. The same molecule showed a logP in series [3] of 2.65. In [4], this molecule had a logPm of -1.02.
Regarding `CCNc1nc(Cl)nc(NC(C)C)n1` [ATRAZINE], the LogP app in series [1] was -4.53; in [2] (artificial membrane), -4.14; with Caco-2 [5], -4.39; in the series on Caco-2 [6], -4.45. In addition, the values for the Papp in series [1] and in series [2] (PAMPA) were 29.2 ×10⁻⁶ cm/s and 72.1 ×10⁻⁶ cm/s, respectively.
Turning to `COc1ccc([C@@H]2Sc3ccccc3N(CCN(C)C)C(=O)[C@@H]2OC(C)=O)cc1` [DILTIAZEM], in series [1], the LogP app is -4.64 and the Papp turned out to be 0.34 ×10⁻⁶ cm/s. This molecule came in with a logP in series [3] of 2.8. The logPm in [4] is on record as -1.85.
Regarding `CCOP(=S)(OCC)Oc1cc(C)nc(C(C)C)n1` [DIMPYLATE], the LogP app is -5.28 in series [1], -4.51 in series [2] (artificial membrane), -4.32 in the series with Caco-2 [5] and -4.42 with Caco-2 [6]. The apparent permeability (Papp) in series [1] was 5.21 ×10⁻⁶ cm/s; in series [2] (PAMPA), 31.1 ×10⁻⁶ cm/s. For the same molecule, the lipophilicity (logP) in series [3] was determined as 3.3.
For the molecule `c1ccc(Nc2ccccc2)cc1` [DIPHENYLAMINE], the LogP app in series [1] is on record as -5.51; in [2] (artificial membrane) it was -4.82; in the series on Caco-2 [5], -4.4; with Caco-2 [6], -4.35. Besides, the Papp in series [1] was determined as 3.1 ×10⁻⁶ cm/s; in series [2] (PAMPA) it was 15 ×10⁻⁶ cm/s.
Take `CC(C)Cc1ccc(C(C)C(=O)O)cc1` (stereo not given) [IBUPROFEN]: the LogP app in series [1] is -4.67 and -4.72. The logPm in [4] was -1.15.
Regarding `CC(C)OP(=O)(OC(C)C)SCc1ccccc1` [IPROBENFOS], the LogP app is -4.93 in [1], -3.44 in series [2] (artificial membrane), -4.28 in the series with Caco-2 [5] and -4.35 in the series with Caco-2 [6]. Moreover, the Papp in [1] is 11.7 ×10⁻⁶ cm/s; in [2] (PAMPA), 362 ×10⁻⁶ cm/s. This molecule also showed a lipophilicity (logP) in series [3] of 3.21.
`CC(C(=O)O)c1cccc(C(=O)c2ccccc2)c1` (stereo not given) [KETOPROFEN]: the LogP app in series [7] is -5.49; in series [8], -5.55. The same molecule registered a logPm in [4] of -2.43.
Regarding `COc1nn(CSP(=S)(OC)OC)c(=O)s1` [METHIDATHION], the values for the LogP app (in series [1]; in [2] (artificial membrane); with Caco-2 [6]) were -4.97, -4.33 and -4.42, respectively. For the same molecule, the Papp in [1] stood at 10.8 ×10⁻⁶ cm/s; in [2] (PAMPA) it was 46.9 ×10⁻⁶ cm/s. Further, in series [3], the logP was 2.5.
Regarding `COc1cccc(C(=O)NN(C(=O)c2cc(C)cc(C)c2)C(C)(C)C)c1C` [METHOXYFENOZIDE], the results for the LogP app (in series [1]; in the series on Caco-2 [5]; in the series on Caco-2 [6]) were -4.72, -4.33 and -4.38, respectively. Besides, in series [1], the Papp was 19.1 ×10⁻⁶ cm/s.
On to `COCCc1ccc(OCC(O)CNC(C)C)cc1` (stereo not given) [METOPROLOL], for which the LogP app is -5.1 and -4.95 in [1]; -4.84 in [2] (artificial membrane). In addition, the apparent permeability coefficient (Papp) in [2] (PAMPA) was determined as 14.3 ×10⁻⁶ cm/s. Also, in series [4], the logPm is given as -1.75.
Take `CC(C)(C)NCC(O)COc1cccc2c1C[C@H](O)[C@H](O)C2` (stereo not given in full) [NADOLOL]: the LogP app is on record as -6.15 in [1] and -4.49 in series [2] (artificial membrane). The apparent permeability (Papp) in [2] (PAMPA) is 32.7 ×10⁻⁶ cm/s. In addition, the logP in series [3] was 0.71.
For the molecule `CCn1cc(C(=O)O)c(=O)c2cc(F)c(N3CCNCC3)cc21` [NORFLOXACIN], in series [1], the LogP app is listed as -6.71. In series [2] (PAMPA), the LogP app is reported as -6.74 and the apparent permeability (Papp) turned out to be 0.18 ×10⁻⁶ cm/s. The log partition coefficient (logP) in series [3] is -1.03.
The corresponding values for `C=CCOc1ccccc1OCC(O)CNC(C)C` (stereo not given) [OXPRENOLOL] are -4.83, -5.03, 9.36 ×10⁻⁶ cm/s and 2.1.
In the case of `O=C1NC(=O)C(c2ccccc2)(c2ccccc2)N1` [PHENYTOIN], the figures for the LogP app in series [1] and in series [2] (artificial membrane) were -4.41 and -4.93, respectively. In [2] (PAMPA), the Papp stood at 11.9 ×10⁻⁶ cm/s. For the same molecule, the logP in series [3] is 2.26.
In the case of `CC(C)NCC(O)COc1cccc2[nH]ccc12` (stereo not given) [PINDOLOL], in series [1], the LogP app is reported as -5.31. Besides, in [2] (PAMPA), the LogP app is -5.85 and the apparent permeability (Papp) was found to be 1.42 ×10⁻⁶ cm/s. This molecule also gave a logP in series [3] of 1.75.
As to `CN1CCN(CC(=O)N2c3ccccc3C(=O)Nc3cccnc32)CC1` [PIRENZEPINE], the LogP app is -6.05 in [1] and -6.09 in series [2] (artificial membrane). In [2] (PAMPA), the Papp amounted to 0.82 ×10⁻⁶ cm/s. Further, the log partition coefficient (logP) in series [3] is 0.1.
Regarding `CN1C(C(=O)Nc2ccccn2)=C(O)c2ccccc2S1(=O)=O` [PIROXICAM], in series [2] (PAMPA), the Papp came to 19.2 ×10⁻⁶ cm/s. Further, the LogP app in series [2] (artificial membrane) is listed as -4.72. The molecule further displayed a logP in [3] of 1.98. Moreover, in [4], the logPm was -2.08.
In the case of `CC(C)(C)N(NC(=O)c1ccccc1)C(=O)c1ccccc1` [RH-5849], the LogP app is -4.78 in [1], -4.34 in the series on Caco-2 [5] and -4.42 with Caco-2 [6]. Further, the apparent permeability coefficient (Papp) in series [1] was determined as 16.5 ×10⁻⁶ cm/s.
For the molecule `O=C(O)c1ccccc1O` [SALICYLIC ACID], in [2] (PAMPA), the LogP app is -5.31 and the Papp came out at 4.9 ×10⁻⁶ cm/s. For the same molecule, the logPm in [4] is -3.46.
As for `CCc1ccc(C(=O)NN(C(=O)c2cc(C)cc(C)c2)C(C)(C)C)cc1` [TEBUFENOZIDE], the figures for the LogP app (in [1]; with Caco-2 [5]; with Caco-2 [6]) were -4.8, -4.44 and -4.39, respectively. Also, in series [1], the apparent permeability (Papp) is 15.7 ×10⁻⁶ cm/s.
As for `C[C@]12CC[C@H]3[C@@H](CCC4=CC(=O)CC[C@@]43C)[C@@H]1CC[C@@H]2O` [TESTOSTERONE], the LogP app in series [1] was -4.95 and -4.77; in [2] (artificial membrane), -3.87; in series [7], -4.08; in series [9] it was -3.87; in series [8] it was -4.29. Further, the apparent permeability coefficient (Papp) in series [2] (PAMPA) worked out at 136 ×10⁻⁶ cm/s.

The values above are taken from ChEMBL document CHEMBL1143050, “QSAR study on permeability of hydrophobic compounds with artificial membranes” (Bioorg Med Chem, 2007).
